Earlier results in patent US20250195352A1, “LIPID FORMULATIONS CONTAINING BIOACTIVE FATTY ACIDS AND OTHER BIOACTIVE AGENTS” (Sciadonics, Inc., priority 2022, published 2025).

Legend:
PPAR receptors = details: unmetabolized SA; Berger 2002
[1] = test system: cultured human skin keratinocytes; details: purified SA taken up by cultured human skin keratinocytes; Berger 2002

- binding to PPAR receptors (PPAR receptors): does not bind
Structure (SMILES): CCCCCC=CCC=CCCCCC=CCCCC(=O)O [SA, 5,11,14-eicosatrienoic acid]
- ARA levels [1]: reduced
- prostaglandin E2 (PGE2) levels [1]: reduced
